Where two headings read alike, the source gives them in different places.
Columns and labels:
MYC = assay: In vitro transcription-translation (IVTT) assay, MYC reporter; format: biochemical; conditions: HeLa S3 lysate, 2 hrs at 30° C.
How it was run: (§1)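 Reporter: mCherry, P2A, then 3×FLAG-target peptide-sfGFP fusion, IRES-initiated; HeLa S3 lysate IVTT; cpd dilutions 30 μM−0.1 μM half-log in 100% DMSO (dilution-plate conc); DNA added last; 2 h, 30° C; PBS quench.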

CCND1 = assay: In vitro transcription-translation (IVTT) assay, CCND1 reporter; format: biochemical; conditions: HeLa S3 lysate, sfGFP/mCherry ratio
How it was run: as §1

MCL-1 = assay: In vitro transcription-translation (IVTT) assay, MCL-1 reporter; format: biochemical; conditions: HeLa S3 lysate, sfGFP/mCherry ratio
How it was run: as §1

CCNTB1 = assay: In vitro transcription-translation (IVTT) assay, CCNTB1 reporter; format: biochemical; conditions: HeLa S3 lysate, sfGFP/mCherry ratio
How it was run: (§2)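 Cell-free HeLa S3 lysate reactions expressing sfGFP/mCherry reporter constructs ran 2 h at 30 °C with compound from half-log DMSO series (30 μM–0.1 μM as prepared), then were quenched with PBS. No-DNA background was subtracted, and the sfGFP/mCherry ratio was normalized to the no-drug control and fit for IC50.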

cGAS = assay: In vitro transcription-translation (IVTT) assay, cGAS reporter; format: biochemical; conditions: HeLa S3 lysate, sfGFP/mCherry ratio
Description: (§3) In vitro transcription-translation assay setup: Each assay includes a master mix containing lysate and shared components, a 96-well plate containing compound titrations for testing, a 96-well DNA plate with reporter constructs to be tested, 96-well skirted PCR plates, and 96-well flat-bottom, black, fluorescent assay plates. Reaction materials setup: (A) Master mix—15 mL conical tube (3 mL of HeLa S3 Lysate described above; 0.6 mL of ThermoFisher Accessory Proteins (#88882); 1.2 ml of ThermoFisher Reaction Mix (#88882); 0.54 mL of nuclease-free Water); (B) 96-Well Master Mix+Compound Plate (Half-log dilutions (30 μM−0.1 μM) of 4 compounds of interest are prepared in 100% DMSO); 96-Well DNA Plate (Five DNA constructs are plated into single columns within the plate. Row 1 of the column contains nuclease free H2O, all other wells contain 110 ng/μL plasmid DNA). Reactions are started by mixing 155 μL of master mix and 3.5 μL of compound serial dilutions, then 9.1 μL of master mix+compound mixture is aliquoted across 5 96-well plates. Reactions begin with final addition of 2 μL of DNA for a 11.1 μL reaction volume in each well. The entire plate is sealed, and incubated for 2 hrs at 30° C. After 2 hrs, quench the assay using 45 μL of PBS, and transfer 50 μL to a flat-bottom black microplate Quantify the sfGFP and mCherry signals from each well on each plate, taking 3 reads of each plate, and perform data analysis below.
(§4) In vitro transcription-translation assay data analysis: Each plate is read three times in channels for both sfGFP and mCherry signals. The average signal across these 3 reads is then calculated for further analysis. Control wells containing no DNA reporter are subtracted from reporter wells in the same column to remove auto-fluorescence of the lysate. Then, the ratio of sfGFP/mCherry is calculated per well, and these ratios are averaged across the triplicate experiments on the same plate. Finally, the ratio of each titration concentration is normalized to the no drug control to create the normalized stalling metric. The error on this measurement is determined by propagating error through the averaging and normalization steps. Values are plotted and fit for IC50 determination for each test sequence and titration of compound.

STING = assay: In vitro transcription-translation (IVTT) assay, STING reporter; format: biochemical; conditions: HeLa S3 lysate, sfGFP/mCherry ratio
Description: as §3, §4

JAK1 = assay: In vitro transcription-translation (IVTT) assay, JAK1 reporter; format: biochemical; conditions: HeLa S3 lysate, sfGFP/mCherry ratio
Description: as §3, §4

NFKB1 = assay: In vitro transcription-translation (IVTT) assay, NFKB1 reporter; format: biochemical; conditions: HeLa S3 lysate, sfGFP/mCherry ratio
How it was run: as §2

ALK = assay: In vitro transcription-translation (IVTT) assay, ALK reporter; format: biochemical; conditions: HeLa S3 lysate, sfGFP/mCherry ratio, 2 hrs at 30° C.
How it was run: as §1

KRAS G12D = assay: In vitro transcription-translation (IVTT) assay, KRAS G12D reporter; format: biochemical; conditions: HeLa S3 lysate, sfGFP/mCherry ratio, 2 hrs at 30° C.
How it was run: as §1

HEK 293T = assay: Cell viability (CellTiter-Fluor), HEK 293T; format: cell-based; conditions: Homo sapiens, 24-72 hrs
Description: (§5) Count and dispense 2,000-10,000 cells per well (100 μL volume) in black 96-well tissue culture microplate and let cells adhere overnight. Add compound dissolved in 100% DMSO to each well as needed and incubate cells in standard culture conditions for 24-72 hrs. Final DMSO concentration in each well should be 0.1-0.5%. At the desired time point, gently aspirate compound containing media and replace with PBS to wash. Repeat wash step for 2 total washes. Remove PBS and add 100 μL CellTiter-Fluor reagent (Promega) reagent to each well. Seal plate and incubate 1 hr at room temperature with orbital shaking. Analyze fluorescence using plate reader to quantify viable cells compared with vehicle (DMSO) control.

HPAF-II = assay: Cell viability (CellTiter-Fluor), HPAF-II; format: cell-based; conditions: Homo sapiens, 24-72 hrs
Description: as §5

KLE = assay: Cell viability (CellTiter-Fluor), KLE; format: cell-based; conditions: Homo sapiens, 24-72 hrs
Description: as §5

LS411N = assay: Cell viability (CellTiter-Fluor), LS411N; format: cell-based; conditions: Homo sapiens, LS-411N, 24-72 hrs
Description: as §5

MCF7 = assay: Cell viability (CellTiter-Fluor), MCF7; format: cell-based; conditions: Homo sapiens, 24-72 hrs
Description: as §5

NCI-H1915 = assay: Cell viability (CellTiter-Fluor), NCI-H1915; format: cell-based; conditions: 24-72 hrs
Description: as §5

HCC38 = assay: Cell viability (CellTiter-Fluor), HCC38; format: cell-based; conditions: Homo sapiens, 24-72 hrs
Description: as §5

HEPG2 = assay: Cell viability (CellTiter-Fluor), HEPG2; format: cell-based; conditions: Homo sapiens, 24-72 hrs
Description: as §5

KATO-III = assay: Cell viability (CellTiter-Fluor), KATO-III; format: cell-based; conditions: Homo sapiens, 24-72 hrs
Description: as §5

MS751 = assay: Cell viability (CellTiter-Fluor), MS751; format: cell-based; conditions: 24-72 hrs
Description: as §5

T47D = assay: Cell viability (CellTiter-Fluor), T47D; format: cell-based; conditions: Homo sapiens, 24-72 hrs
Description: as §5

BCL-2 = assay: In vitro transcription-translation (IVTT) assay, BCL-2 reporter; format: biochemical; conditions: HeLa S3 lysate, sfGFP/mCherry ratio, 2 hrs at 30° C.
How it was run: as §1

[1] = IVTT assay, MYC reporter, normalized sfGFP/mCherry ratio, half-log dilutions 30 μM-0.1 μM
[2] = IVTT assay, read-out: MCL1 IC50

SMILES | IC50 (MYC; [1]) [µM] | IC50 (CCND1; IVTT assay) [µM] | IC50 (MCL-1; [2]) [µM] | IC50 (CCNTB1) [µM] | IC50 (cGAS) [µM] | IC50 (STING) [µM] | IC50 (JAK1) [µM] | IC50 (NFKB1) [µM] | IC50 (MYC; sfGFP/mCherry ratio) [µM] | IC50 (CCND1; 2 hrs at 30° C.) [µM] | IC50 (MCL-1; 2 hrs at 30° C.) [µM] | IC50 (KRAS G12D) [µM] | IC50 (HEK 293T) [µM] | IC50 (HPAF-II) [µM] | IC50 (KLE) [µM] | IC50 (LS411N) [µM] | IC50 (MCF7) [µM] | IC50 (NCI-H1915) [µM] | IC50 (HCC38) [µM] | IC50 (HEPG2) [µM] | other results
O=C(NCc1ccnc(N2CCC2)c1)O[C@@H]1[C@@H](O)CN[C@@H]1Cc1ccc(-c2cnco2)cc1 [V192160, (2R,3S,4S)-4-hydroxy-2-(4-(oxazol-5-yl)benzyl)pyrrolidin-3-yl ((2-(azetidin-1-yl)pyridin-4-yl)methyl)carbamate] | < 10 | < 10 | < 10 | < 10 | < 10 | < 10 | < 10 | < 10 | – | – | – | – | – | – | – | – | – | – | – | – | –
COc1ccc(C[C@H]2NC[C@H](O)[C@H]2OC(=O)NCc2c[nH]nn2)cc1 [V187536, (2R,3S,4S)-4-hydroxy-2-[(4-methoxyphenyl)methyl]pyrrolidin-3-yl N-(1H-1,2,3-triazol-4-ylmethyl) carbamate; trifluoroacetic acid] | – | – | – | – | – | – | – | – | < 10 | < 10 | < 10 | < 10 | 0.25 to 1 | 1 to 4 | 1 to 4 | 1 to 4 | 1 to 4 | 1 to 4 | 1 to 4 | 1 to 4 | IC50 (ALK): < 10 µM; IC50 (KATO-III): 1 to 4 µM; IC50 (MS751): 0.25 to 1 µM; IC50 (T47D): 1 to 4 µM
O=C(NCCC1CCNCC1)O[C@@H]1[C@@H](O)CN[C@@H]1Cc1ccc(-c2cnco2)cc1 [V192049, (2R,3S,4S)-4-hydroxy-2-{[4-(1,3-oxazol-5-yl)phenyl]methyl}pyrrolidin-3-yl N-[2-(piperidin-4-yl)ethyl]carbamate] | < 10 | < 10 | < 10 | < 10 | < 10 | < 10 | < 10 | < 10 | – | – | – | – | – | – | – | – | – | – | – | – | –
O=C(NCCOC(F)(F)F)O[C@@H]1[C@@H](O)CN[C@@H]1Cc1ccc(-c2cnco2)cc1 [V192265, (2R,3S,4S)-4-hydroxy-2-{[4-(1,3-oxazol-5-yl)phenyl]methyl}pyrrolidin-3-yl N-[2-(trifluoromethoxy)ethyl]carbamate] | < 10 | < 10 | < 10 | < 10 | < 10 | < 10 | < 10 | < 10 | – | – | – | – | – | – | – | – | – | – | – | – | –
COc1ccc(C[C@H]2NC[C@H](O)[C@H]2OC(=O)NCCc2cn[nH]c2)cc1 [V187509, (2R,3S,4S)-4-hydroxy-2-[(4-methoxyphenyl)methyl]pyrrolidin-3-yl N-[2-(1H-pyrazol-4-yl)ethyl]carbamate] | – | – | – | – | – | – | – | – | < 10 | < 10 | < 10 | < 10 | < 0.25 | 0.25 to 1 | 0.25 to 1 | 0.25 to 1 | 0.25 to 1 | 0.25 to 1 | 0.25 to 1 | 1 to 4 | IC50 (BCL-2): < 10 µM; IC50 (KATO-III): 0.25 to 1 µM; IC50 (MS751): < 0.25 µM; IC50 (T47D): 0.25 to 1 µM

From US20250129021A1, “SMALL MOLECULE PROTEIN SYNTHESIS MODULATORS” (Interdict Bio, Inc., priority 2023, published 2025)
